The experiment addresses Mushroom TYR (EC 1.14.18.1) (Agaricus bisporus, UniProt C7FF04). As to the kind of experiment: biochemical. Particulars: IC50 value ± SD.
[1] abbreviates: L-dopa, substrate L-dopa (diphenolase), n = 3, screening of de novo generated compounds (Table 1).
[2] abbreviates: L-tyrosine, substrate L-tyrosine (monophenolase), n = 3, screening of de novo generated compounds (Table 1).

The source of these data is article PMC13539321 (Journal of Advanced Research, 2025).

Chain of Mushroom TYR (EC 1.14.18.1) (C7FF04 1-392 limits assumed): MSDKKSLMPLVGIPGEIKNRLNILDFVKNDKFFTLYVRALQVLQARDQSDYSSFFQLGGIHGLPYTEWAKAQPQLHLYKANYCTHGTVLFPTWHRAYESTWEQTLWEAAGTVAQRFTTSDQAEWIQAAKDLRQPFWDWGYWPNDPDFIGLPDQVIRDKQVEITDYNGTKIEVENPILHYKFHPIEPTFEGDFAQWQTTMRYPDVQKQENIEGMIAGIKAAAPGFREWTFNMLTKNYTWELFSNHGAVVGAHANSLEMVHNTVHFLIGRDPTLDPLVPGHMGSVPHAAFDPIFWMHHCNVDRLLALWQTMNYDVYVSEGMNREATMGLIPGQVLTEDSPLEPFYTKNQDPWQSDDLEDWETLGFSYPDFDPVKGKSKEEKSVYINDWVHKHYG

For the molecule `COc1cc(C(=O)N[C@@H](Cc2ccccc2)C(N)=O)ccc1O` [Compound I, (S)-N-(1-amino-1-oxo-3-phenylpropan-2-yl)-4-hydroxy-3-methoxybenzamide], the IC50 – broadly, the concentration needed to halve the response being measured – by setting is: under setting [1], more than 800 µM; under setting [2], more than 800 µM.

For the molecule `O=C(CCc1cccc(O)c1)N1CCN(Cc2ccccc2F)CC1` [Compound V-1, 1-(4-(2-fluorobenzyl)piperazin-1-yl)-3-(3-hydroxyphenyl)propan-1-one], the IC50 by setting is: (L-dopa) more than 800 µM; (L-tyrosine) 204 ± 3.9 µM.

Regarding `O=C(CCc1cccc(O)c1)N1CCN(Cc2cccc(F)c2)CC1` [Compound V-2, 1-(4-(3-fluorobenzyl)piperazin-1-yl)-3-(3-hydroxyphenyl)propan-1-one], the IC50 (L-dopa) was more than 400 µM and the midpoint of inhibition (L-tyrosine), the IC50, lay at 295 ± 24.2 µM.

In the case of `O=C(CCc1ccccc1O)N1CCN(Cc2ccc(F)cc2)CC1` [Compound V-3, 1-(4-(4-fluorobenzyl)piperazin-1-yl)-3-(2-hydroxyphenyl)propan-1-one], the IC50 (L-dopa) turned out to be 66.1 ± 4.6 µM and the half-maximal inhibitory concentration (IC50) (L-tyrosine) stood at 60.6 ± 4.5 µM.

`O=C(CCc1ccc(O)cc1)N1CCN(Cc2ccc(F)cc2)CC1` [Compound V-4, 1-(4-(4-fluorobenzyl)piperazin-1-yl)-3-(4-hydroxyphenyl)propan-1-one]: 26.1 ± 4.6 µM corresponded to half-maximal inhibition (L-dopa) (IC50) and 2.9 ± 0.1 µM corresponded to half-maximal inhibition (L-tyrosine) (IC50).

With `O=C(/C=C/c1cccc(O)c1)N1CCN(Cc2ccc(F)cc2)CC1` [Compound V-5, (E)-1-(4-(4-fluorobenzyl)piperazin-1-yl)-3-(3-hydroxyphenyl)prop-2-en-1-one], the IC50 (L-dopa) is more than 200 µM and the 50% inhibitory concentration (IC50) (L-tyrosine) came to 148 ± 25.4 µM.

`O=C(CCc1cccc(O)c1)N1CCCN(Cc2ccc(F)cc2)CC1` [Compound V-6, 1-(4-(4-fluorobenzyl)-1,4-diazepan-1-yl)-3-(3-hydroxyphenyl)propan-1-one]: the IC50 is 296 ± 7.9 µM (L-dopa) and 88.9 ± 2.9 µM (L-tyrosine).

For `O=C(CCc1cccc(O)c1)N1CC2CN(Cc3ccc(F)cc3)CC2C1` (centres unmarked) [Compound V-7, 1-(5-(4-fluorobenzyl)hexahydropyrrolo[3,4-c]pyrrol-2(1H)-yl)-3-(3-hydroxyphenyl)propan-1-one], the IC50 runs as follows: (L-dopa) 119 ± 5.2 µM; (L-tyrosine) 25.8 ± 1.1 µM.

With `O=C(CCc1cccc(O)c1)NCCNCc1ccc(F)cc1` [Compound V-8, N-(2-((4-fluorobenzyl)amino)ethyl)-3-(3-hydroxyphenyl)propanamide], the IC50 was more than 800 µM (L-dopa) and 298 ± 16.6 µM (L-tyrosine).

Turning to `O=C(CCc1cccc(O)c1)NCCCNCc1ccc(F)cc1` [Compound V-9, N-(3-((4-fluorobenzyl)amino)propyl)-3-(3-hydroxyphenyl)propanamide], the IC50 was more than 800 µM (L-dopa) and 328 ± 4.9 µM (L-tyrosine).

With `O=C(CCc1cccc(O)c1)N1CCN(Cc2cccc(Cl)c2)CC1` [Compound V-10, 1-(4-(3-chlorobenzyl)piperazin-1-yl)-3-(3-hydroxyphenyl)propan-1-one], the half-inhibitory concentration (IC50) by setting is: (L-dopa) 19 ± 2.2 µM; (L-tyrosine) 7.4 ± 0.4 µM.

Turning to `Cc1ccc(CN2CCN(C(=O)CCc3cccc(O)c3)CC2)cc1` [Compound V-11, 3-(3-hydroxyphenyl)-1-(4-(4-methylbenzyl)piperazin-1-yl)propan-1-one], the IC50 is, setting by setting: (L-dopa) more than 400 µM; (L-tyrosine) 20.1 ± 0.7 µM.

Take `CCc1ccc(CN2CCN(C(=O)CCc3cccc(O)c3)CC2)cc1` [Compound V-12, 1-(4-(4-ethylbenzyl)piperazin-1-yl)-3-(3-hydroxyphenyl)propan-1-one]: the IC50 was more than 800 µM (L-dopa) and more than 800 µM (L-tyrosine).

For `COc1ccc(CN2CCN(C(=O)CCc3cccc(O)c3)CC2)cc1` [Compound V-13, 3-(3-hydroxyphenyl)-1-(4-(4-methoxybenzyl)piperazin-1-yl)propan-1-one], the IC50 reads like this: (L-dopa) 103 ± 5.6 µM; (L-tyrosine) 132 ± 5.4 µM.

On to `N#Cc1ccc(CN2CCN(C(=O)CCc3cccc(O)c3)CC2)cc1` [Compound V-14, 4-((4-(3-(3-hydroxyphenyl)propanoyl)piperazin-1-yl)methyl)benzonitrile], for which the IC50 came out at 72.6 ± 3.1 µM (L-dopa) and 83.2 ± 3.2 µM (L-tyrosine).

Regarding `O=C(CCc1cccc(O)c1)N1CCN(C/C=C/c2ccc(F)cc2)CC1` [Compound V-15, (E)-1-(4-(3-(4-fluorophenyl)allyl)piperazin-1-yl)-3-(3-hydroxyphenyl)propan-1-one], the midpoint of inhibition (L-dopa), the IC50, lay at 140 ± 15.6 µM and inhibition (L-tyrosine) was half-maximal at 41.8 ± 3.2 µM (IC50).

With `O=C(CCc1cccc(O)c1)N1CCN(CCc2ccccc2)CC1` [Compound V-16, 3-(3-hydroxyphenyl)-1-(4-phenethylpiperazin-1-yl)propan-1-one], the IC50 is, setting by setting: (L-dopa) more than 800 µM; (L-tyrosine) more than 300 µM.

For the molecule `O=C(CCc1cccc(O)c1)N1CCN(Cc2ccco2)CC1` [Compound V-17, 1-(4-(furan-2-ylmethyl)piperazin-1-yl)-3-(3-hydroxyphenyl)propan-1-one], the IC50 was more than 800 µM (L-dopa) and more than 600 µM (L-tyrosine).

Turning to `O=C(CCc1cccc(O)c1)N1CCN(Cc2cccs2)CC1` [Compound V-18, 3-(3-hydroxyphenyl)-1-(4-(thiophen-2-ylmethyl)piperazin-1-yl)propan-1-one], the IC50 runs as follows: (L-dopa) more than 800 µM; (L-tyrosine) more than 300 µM.

As to `O=C(CCc1cccc(O)c1)N1CCN(Cc2ccccn2)CC1` [Compound V-19, 3-(3-hydroxyphenyl)-1-(4-(pyridin-2-ylmethyl)piperazin-1-yl)propan-1-one], the IC50 reads like this: (L-dopa) more than 800 µM; (L-tyrosine) more than 600 µM.

Take `O=C(CCc1cc(O)cc(O)c1)N1CCN(Cc2ccc(F)cc2)CC1` [Compound V-20, 3-(3,5-dihydroxyphenyl)-1-(4-(4-fluorobenzyl)piperazin-1-yl)propan-1-one]: the IC50 runs as follows: (L-dopa) 21.3 ± 0.8 µM; (L-tyrosine) 9.1 ± 0.6 µM.

As to `O=C(CCc1cc(O)ccc1O)N1CCN(Cc2ccc(F)cc2)CC1` [Compound V-21, 3-(2,5-dihydroxyphenyl)-1-(4-(4-fluorobenzyl)piperazin-1-yl)propan-1-one], the midpoint of inhibition (L-dopa), the IC50, lay at 21 ± 0.82 µM and the IC50 (L-tyrosine) turned out to be 8.2 ± 0.4 µM.

`O=C(/C=C/c1ccc(O)cc1O)N1CCN(Cc2ccc(F)cc2)CC1` [Compound V-22, (E)-3-(2,4-dihydroxyphenyl)-1-(4-(4-fluorobenzyl)piperazin-1-yl)prop-2-en-1-one]: the IC50 (L-dopa) worked out at 0.085 ± 0.016 µM and the midpoint of inhibition (L-tyrosine), the IC50, lay at 0.122 ± 0.008 µM.

With `Cc1ccc(CN2CCN(C(=O)CCc3ccc(O)cc3O)CC2)cc1` [Compound V-23, 3-(2,4-dihydroxyphenyl)-1-(4-(4-methylbenzyl)piperazin-1-yl)propan-1-one], the half-maximal inhibitory concentration (IC50) reads like this: (L-dopa) 0.134 ± 0.008 µM; (L-tyrosine) 0.183 ± 0.013 µM.

`COc1ccc(CN2CCN(C(=O)CCc3ccc(O)cc3O)CC2)cc1` [Compound V-25, 3-(2,4-dihydroxyphenyl)-1-(4-(4-methoxybenzyl)piperazin-1-yl)propan-1-one] had an IC50 (L-dopa) of 0.147 ± 0.013 µM and an IC50 (L-tyrosine) of 0.165 ± 0.008 µM.

As for `COc1ccc(CN2CCN(C(=O)/C=C/c3ccc(O)cc3O)CC2)cc1` [Compound V-26, (E)-3-(2,4-dihydroxyphenyl)-1-(4-(4-methoxybenzyl)piperazin-1-yl)prop-2-en-1-one], the IC50 worked out at 0.02 ± 0.002 µM (L-dopa) and 0.023 ± 0.002 µM (L-tyrosine).

For `CCOc1ccc(CN2CCN(C(=O)CCc3ccc(O)cc3O)CC2)cc1` [Compound V-27, 3-(2,4-dihydroxyphenyl)-1-(4-(4-ethoxybenzyl)piperazin-1-yl)propan-1-one], the 50% inhibitory concentration (IC50) came to 0.596 ± 0.026 µM (L-dopa) and 0.497 ± 0.07 µM (L-tyrosine).

As to `CCOc1ccc(CN2CCN(C(=O)/C=C/c3ccc(O)cc3O)CC2)cc1` [Compound V-28, (E)-3-(2,4-dihydroxyphenyl)-1-(4-(4-ethoxybenzyl)piperazin-1-yl)prop-2-en-1-one], the IC50 turned out to be 0.019 ± 0.0002 µM (L-dopa) and 0.021 ± 0.001 µM (L-tyrosine).

For `O=C(CCc1ccc(O)cc1O)N1CCN(Cc2cccc(Cl)c2)CC1` [Compound V-29, 1-(4-(3-chlorobenzyl)piperazin-1-yl)-3-(2,4-dihydroxyphenyl)propan-1-one], the IC50 is 0.189 ± 0.005 µM (L-dopa) and 0.216 ± 0.019 µM (L-tyrosine).

Take `O=C(/C=C/c1ccc(O)cc1O)N1CCN(Cc2cccc(Cl)c2)CC1` [Compound V-30, (E)-1-(4-(3-chlorobenzyl)piperazin-1-yl)-3-(2,4-dihydroxyphenyl)prop-2-en-1-one]: the IC50 is 0.022 ± 0.001 µM (L-dopa) and 0.021 ± 0.0003 µM (L-tyrosine).

The molecule `O=C(CCc1ccc(O)cc1O)N1CCN(Cc2ccc(Cl)cc2)CC1` [Compound V-31, 1-(4-(4-chlorobenzyl)piperazin-1-yl)-3-(2,4-dihydroxyphenyl)propan-1-one] returned an IC50 (L-dopa) of 0.153 ± 0.011 µM and an IC50 (L-tyrosine) of 0.187 ± 0.003 µM.

As to `O=C(/C=C/c1ccc(O)cc1O)N1CCN(Cc2ccc(Cl)cc2)CC1` [Compound V-32, (E)-1-(4-(4-chlorobenzyl)piperazin-1-yl)-3-(2,4-dihydroxyphenyl)prop-2-en-1-one], the half-inhibitory concentration (IC50) is, setting by setting: (L-dopa) 0.021 ± 0.002 µM; (L-tyrosine) 0.024 ± 0.002 µM.

As for `N#Cc1ccc(CN2CCN(C(=O)CCc3ccc(O)cc3O)CC2)cc1` [Compound V-33, 4-((4-(3-(2,4-dihydroxyphenyl)propanoyl)piperazin-1-yl)methyl)benzonitrile], half-maximal inhibition (L-dopa) (IC50) was put at 0.237 ± 0.011 µM and the IC50 (L-tyrosine) amounted to 0.299 ± 0.007 µM.

Regarding `N#Cc1ccc(CN2CCN(C(=O)/C=C/c3ccc(O)cc3O)CC2)cc1` [Compound V-34, (E)-4-((4-(3-(2,4-dihydroxyphenyl)acryloyl)piperazin-1-yl)methyl)benzonitrile], the IC50 is 0.032 ± 0.004 µM (L-dopa) and 0.041 ± 0.005 µM (L-tyrosine).

As to `NC(=O)[C@H](Cc1ccccc1)NC(=O)CCc1cccc(O)c1` [II, (S)-N-(1-amino-1-oxo-3-phenylpropan-2-yl)-3-(3-hydroxyphenyl)propanamide], the IC50 is more than 800 µM under setting [1] and 423 ± 38.3 µM under setting [2].

Molecule `NC(=O)[C@H](Cc1ccccc1)NC(=O)c1cccc(O)c1` [III, (S)-N-(1-amino-1-oxo-3-phenylpropan-2-yl)-3-hydroxybenzamide] showed an IC50 under setting [1] of more than 800 µM and a half-maximal inhibitory concentration (IC50) under setting [2] of more than 800 µM.

For `O=C(CCc1cccc(O)c1)NC1CCN(Cc2ccccc2)CC1` [IV, N-(1-benzylpiperidin-4-yl)-3-(3-hydroxyphenyl)propanamide], the IC50 is, setting by setting: under setting [1], more than 800 µM; under setting [2], 198 ± 7.6 µM.
